SMILES strings stand for the structures.

The target of this test is T1, FLT3 (Homo sapiens, UniProt P36888).
T1 sequence (P36888 27-993): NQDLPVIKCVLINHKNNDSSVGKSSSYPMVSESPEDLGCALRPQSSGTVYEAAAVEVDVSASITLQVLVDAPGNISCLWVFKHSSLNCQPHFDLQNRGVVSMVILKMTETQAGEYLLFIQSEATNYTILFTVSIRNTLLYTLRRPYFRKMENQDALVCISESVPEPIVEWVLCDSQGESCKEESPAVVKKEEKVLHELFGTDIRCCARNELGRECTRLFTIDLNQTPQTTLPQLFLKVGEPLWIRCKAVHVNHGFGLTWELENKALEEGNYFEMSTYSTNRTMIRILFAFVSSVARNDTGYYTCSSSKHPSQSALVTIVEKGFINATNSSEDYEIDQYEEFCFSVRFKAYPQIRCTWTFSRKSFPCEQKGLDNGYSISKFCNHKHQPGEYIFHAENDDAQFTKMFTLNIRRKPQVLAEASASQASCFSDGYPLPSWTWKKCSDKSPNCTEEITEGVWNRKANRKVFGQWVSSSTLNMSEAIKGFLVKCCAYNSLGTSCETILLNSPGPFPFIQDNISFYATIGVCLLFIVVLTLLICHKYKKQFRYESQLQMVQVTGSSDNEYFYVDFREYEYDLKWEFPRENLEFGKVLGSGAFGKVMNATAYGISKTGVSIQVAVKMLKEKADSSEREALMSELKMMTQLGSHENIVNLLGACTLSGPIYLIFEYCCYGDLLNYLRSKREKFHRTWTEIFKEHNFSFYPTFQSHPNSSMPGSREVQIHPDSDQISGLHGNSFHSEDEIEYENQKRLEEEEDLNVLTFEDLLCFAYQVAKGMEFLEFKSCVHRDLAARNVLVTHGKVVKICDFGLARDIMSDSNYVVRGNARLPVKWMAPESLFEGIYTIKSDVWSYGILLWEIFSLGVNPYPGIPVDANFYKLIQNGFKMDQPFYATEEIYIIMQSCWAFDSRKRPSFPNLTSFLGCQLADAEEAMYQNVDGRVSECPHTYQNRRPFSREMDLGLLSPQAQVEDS
The experiment in a line: Reaction Biology NanoBRET target engagement assay, FLT3. It counts as cell-based. The note with it: transfected HEK-293 cells. The source says:
The NanoBRET assay measures kinase engagement in real time in the context of the intact cell. Unlike the previously described biochemical kinase assay methodologies in Examples 26-27, the NanoBRET assay measures the binding and activity characteristics under equilibrium conditions using full-length kinases in the presence of cellular concentrations of ATP in live, uncompromised cells. As such, the assay provides a more relevant assessment of kinase potency and selectivity that would be expected to be observed in the native cellular environment, where potency is often considerably lower than that observed in the isolated biochemical assays (Vasta, J. D. et al., (2018) Cell Chem. Biol. 25, 206-214). The assay uses a Kinase-NanoLuc® fusion vector expressing a kinase protein to which a luciferase tag has been added, a cell-permeant fluorescent NanoBRET™ tracer, a NanoLuc® substrate, and an extracellular NanoLuc® inhibitor. Upon expression of the luciferase-tagged kinase, cells will produce a strong BRET signal only in the presence of the NanoBRET™ tracer. The extracellular NanoLuc® inhibitor ensures that the BRET signal observed emanates only from live cells. Because the BRET signal has tight distance constraints, addition of the test compound will decrease the BRET signal if the compound competes with the NanoBRET™ tracer for binding to the kinase domain. Under the appropriate tracer conditions established by the manufacturer, quantitative intracellular affinity and relative potency can then be determined using Mass Action model equations.
HEK-293 cells were purchased from ATCC. FuGENEHD Transfection Reagent, Kinase-NanoLucfusion plasmids, Transfection Carrier DNA, NanoBRETTracers and dilution buffer, NanoBRETNano-Glo Substrate, Extracellular NanoLucInhibitor were obtained from Promega.
Assays were conducted following Promega assay protocol with some modifications. HEK-293 Cells were transiently transfected with Kinase-NanoLucFusion Vector DNA by FuGENEHD Transfection Reagent. Testing compounds were delivered into 384 well assay plate by Echo 550 (Labcytelnc, Sunnyvale, CA). Transfected cells were harvested and mixed with NanoBRETTracer Reagent and dispensed into 384 well plates and incubated at 37° C. in 5% CO2 cell culture incubator for 1 hour. The NanoBRETNano-Glo Substrate plus Extracellular NanoLucInhibitor Solution were added into the wells of the assay plate and incubated for 2-3 minutes at room temperature. The donor emission wavelength (460 nm) and acceptor emission wavelength (600 nm) were measured in the EnVisionplate reader. The BRET Ratios were calculated. BRET Ratio=[(Acceptor sample÷Donor sample)−(Acceptor no-tracer control÷Donor no-tracer control)]. The IC50 values of compounds were calculated with Prism GraphPad program.
NanoBRET™ Target Engagement Assay Protocol
1. Transient Transfection of HEK-293 Cells NanoLuc® Fusion Vector DNA
• 1). Cultivate HEK-293 cells (70-80% confluence) appropriately prior to assay. Trypsinize and collect HEK-293 cells. • 2). Prepare lipid: DNA complexes as follows: • a. Prepare a […] solution of DNA in Opti-MEM without serum that consists of the following ratios of carrier DNA and DNA encoding NanoLuc® fusion. 9.0 µg/mL of Transfection Carrier DNA, […] of NanoLuc fusion vector DNA and 1 mL of Opti-MEM without phenol red. Mix thoroughly. • b. Add 30 l of FuGENE HD Transfection Reagent into each milliliter of DNA mixture to form lipid: DNA complex. • c. Mix by inversion 10 times. • d. Incubate at ambient temperature for 20 minutes to allow complexes to form. • 3). In a sterile, conical tube, mix 1 part of lipid: DNA complex with 20 parts of HEK-293 cells in suspension. Mix gently by inversion 5 times. • 4). Dispense cells+lipid: DNA complex into a sterile tissue culture dish and incubate for 22-24 hours. 2. Addition of Test Compounds (dry plate shooting)
Each test compound is delivered from the compound source plate to the wells of 384-well white NBS plate by Echo 550.
3. […]
In general terms: BRET reads energy transfer from a luciferase to a nearby fluorophore.
The molecule `O=C1CCCN1c1cn2c(-c3cccc(N[C@H]4CNC[C@@H]4F)n3)cnc2cn1` [Compound 121, 1-(3-(6-(((3S,4S)-4-fluoropyrrolidin-3-yl)amino)pyridin-2-yl)imidazo[1,2-a]pyrazin-6-yl)pyrrolidin-2-one] came in with an IC50 of 21 nM.
The result for `CC(C)(C)c1cn2c(-c3nc(N[C@H]4CNC[C@@H]4F)c(F)cc3F)cnc2cn1` [Compound 125] reads 937 nM.
Turning to `CC(C)(C)c1cn2c(-c3nc(N[C@@H]4CCCNC4)c(F)cc3F)cnc2cn1` [Compound 126, (R)-6-(6-(tert-butyl)imidazo[1,2-a]pyrazin-3-yl)-3,5-difluoro-N-(piperidin-3-yl)pyridin-2-amine], the half-inhibitory concentration (IC50) was found to be 8 nM.
`CC(C)(C)c1cn2c(-c3nc(N[C@H]4CNCC[C@@H]4F)c(F)cc3F)cnc2cn1` [Compound 127, 6-(6-(tert-butyl)imidazo[1,2-a]pyrazin-3-yl)-3,5-difluoro-N-((3S,4S)-4-fluoropiperidin-3-yl)pyridin-2-amine] showed an IC50 of 16 nM.
The molecule `CC(C)(C)c1cn2c(-c3cccc(N[C@@H]4CCCNC4)n3)cnc2cn1` [Compound 129, (R)-6-(6-(tert-butyl)imidazo[1,2-a]pyrazin-3-yl)-N-(piperidin-3-yl)pyridin-2-amine] came in with a half-inhibitory concentration (IC50) of 12 nM.
With `CC(C)(C)c1cn2c(-c3cccc(N[C@H]4CNCC[C@@H]4F)n3)cnc2cn1` [Compound 130, 6-(6-(tert-butyl)imidazo[1,2-a]pyrazin-3-yl)-N-((3S,4S)-4-fluoropiperidin-3-yl)pyridin-2-amine], inhibition was half-maximal at 11 nM (IC50).

For orientation: IC50 means the concentration that inhibits the measured activity by half.

Values taken from US12612410B2 (CHILDREN'S HOSPITAL MEDICAL CENTER, priority 2020, dated 2026).
